Patent publication US12479847B2 (DANA-FARBER CANCER INSTITUTE, INC., priority 2019, dated 2025)
Like-named read-outs stand apart in the source and are kept apart here.

Columns and labels:
Test in all cases: KINOMEscan (ScanMAX) kinase profiling
Assay type in all cases: binding
panel of 468 kinases [1] = target: T1, panel of 468 kinases (Homo sapiens, UniProt Q08881); details: ITK; 1 μM; read-out: % control
T1 construct: purchased KINOMEscan (ScanMAX) service
T1 sequence (Q08881 1-620): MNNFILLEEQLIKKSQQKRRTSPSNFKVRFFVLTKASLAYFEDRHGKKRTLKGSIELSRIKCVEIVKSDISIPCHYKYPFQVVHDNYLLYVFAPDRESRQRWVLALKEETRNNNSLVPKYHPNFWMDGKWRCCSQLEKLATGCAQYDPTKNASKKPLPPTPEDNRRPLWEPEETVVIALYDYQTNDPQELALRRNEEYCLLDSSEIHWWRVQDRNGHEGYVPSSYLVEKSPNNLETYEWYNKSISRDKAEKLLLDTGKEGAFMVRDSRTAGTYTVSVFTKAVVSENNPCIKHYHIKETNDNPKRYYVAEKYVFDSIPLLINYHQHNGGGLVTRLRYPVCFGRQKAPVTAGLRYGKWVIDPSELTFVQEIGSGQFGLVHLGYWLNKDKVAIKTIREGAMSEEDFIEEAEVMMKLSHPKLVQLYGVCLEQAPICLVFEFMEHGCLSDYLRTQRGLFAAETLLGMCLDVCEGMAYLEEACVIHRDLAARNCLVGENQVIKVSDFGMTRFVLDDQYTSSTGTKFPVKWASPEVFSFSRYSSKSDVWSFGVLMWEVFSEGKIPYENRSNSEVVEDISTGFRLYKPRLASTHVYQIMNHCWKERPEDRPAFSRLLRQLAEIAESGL

panel of 468 kinases [2] = target: T2, panel of 468 kinases (Homo sapiens, UniProt O75582); details: 1 μM, read-out: % control
T2 construct: purchased KINOMEscan (ScanMAX) service
T2 sequence (O75582 whole entry): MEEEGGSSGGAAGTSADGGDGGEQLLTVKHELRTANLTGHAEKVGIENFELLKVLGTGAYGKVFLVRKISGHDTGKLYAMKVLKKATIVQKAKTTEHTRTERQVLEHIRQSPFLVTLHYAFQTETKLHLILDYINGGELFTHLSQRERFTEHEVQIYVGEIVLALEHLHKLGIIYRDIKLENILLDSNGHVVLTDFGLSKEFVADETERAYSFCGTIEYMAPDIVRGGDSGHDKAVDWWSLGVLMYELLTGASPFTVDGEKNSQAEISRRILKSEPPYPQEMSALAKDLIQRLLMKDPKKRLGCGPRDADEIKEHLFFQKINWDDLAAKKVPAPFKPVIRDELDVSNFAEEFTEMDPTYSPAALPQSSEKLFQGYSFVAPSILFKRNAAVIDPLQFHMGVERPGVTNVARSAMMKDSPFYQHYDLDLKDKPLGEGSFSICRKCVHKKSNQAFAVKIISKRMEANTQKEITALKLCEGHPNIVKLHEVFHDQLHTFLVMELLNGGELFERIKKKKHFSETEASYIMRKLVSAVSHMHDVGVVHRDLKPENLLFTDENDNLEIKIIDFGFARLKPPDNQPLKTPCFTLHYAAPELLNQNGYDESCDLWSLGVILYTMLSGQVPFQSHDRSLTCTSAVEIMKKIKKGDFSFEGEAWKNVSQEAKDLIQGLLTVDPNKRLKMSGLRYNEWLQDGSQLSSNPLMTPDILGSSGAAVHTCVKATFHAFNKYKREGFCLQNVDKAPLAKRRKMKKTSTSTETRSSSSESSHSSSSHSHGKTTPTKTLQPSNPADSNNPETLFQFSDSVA

panel of 468 kinases [3] = target: T3, panel of 468 kinases (Homo sapiens, UniProt P00519, M351T); details: ABL1(M351T)-phosphorylated; 1 μM; read-out: % control
T3 construct: purchased KINOMEscan (ScanMAX) service

panel of 468 kinases [4] = target: T4, panel of 468 kinases (Homo sapiens, UniProt Q9H093); details: SNARK; 1 μM; read-out: % control
T4 construct: purchased KINOMEscan (ScanMAX) service
T4 sequence (Q9H093 1-628): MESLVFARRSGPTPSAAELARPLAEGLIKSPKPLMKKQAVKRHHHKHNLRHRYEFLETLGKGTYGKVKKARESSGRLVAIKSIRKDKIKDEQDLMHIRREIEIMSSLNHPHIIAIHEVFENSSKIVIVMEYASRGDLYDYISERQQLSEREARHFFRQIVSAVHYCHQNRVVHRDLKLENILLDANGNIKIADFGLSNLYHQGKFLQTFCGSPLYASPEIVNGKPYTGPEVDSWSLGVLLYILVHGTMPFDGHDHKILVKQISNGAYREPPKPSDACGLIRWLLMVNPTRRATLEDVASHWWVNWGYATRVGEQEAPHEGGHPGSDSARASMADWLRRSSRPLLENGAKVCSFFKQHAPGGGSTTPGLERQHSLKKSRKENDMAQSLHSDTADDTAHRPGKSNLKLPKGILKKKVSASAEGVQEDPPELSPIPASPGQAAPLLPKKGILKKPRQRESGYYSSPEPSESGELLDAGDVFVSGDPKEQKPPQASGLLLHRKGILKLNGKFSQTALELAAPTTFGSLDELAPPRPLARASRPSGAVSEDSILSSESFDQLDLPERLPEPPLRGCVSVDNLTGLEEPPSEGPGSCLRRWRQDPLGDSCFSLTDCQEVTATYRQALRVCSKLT

panel of 468 kinases [5] = target: T5, panel of 468 kinases (Homo sapiens, UniProt Q8IVW4); details: CDKL3; 1 μM; read-out: % control
T5 construct: purchased KINOMEscan (ScanMAX) service
T5 sequence (Q8IVW4 whole entry): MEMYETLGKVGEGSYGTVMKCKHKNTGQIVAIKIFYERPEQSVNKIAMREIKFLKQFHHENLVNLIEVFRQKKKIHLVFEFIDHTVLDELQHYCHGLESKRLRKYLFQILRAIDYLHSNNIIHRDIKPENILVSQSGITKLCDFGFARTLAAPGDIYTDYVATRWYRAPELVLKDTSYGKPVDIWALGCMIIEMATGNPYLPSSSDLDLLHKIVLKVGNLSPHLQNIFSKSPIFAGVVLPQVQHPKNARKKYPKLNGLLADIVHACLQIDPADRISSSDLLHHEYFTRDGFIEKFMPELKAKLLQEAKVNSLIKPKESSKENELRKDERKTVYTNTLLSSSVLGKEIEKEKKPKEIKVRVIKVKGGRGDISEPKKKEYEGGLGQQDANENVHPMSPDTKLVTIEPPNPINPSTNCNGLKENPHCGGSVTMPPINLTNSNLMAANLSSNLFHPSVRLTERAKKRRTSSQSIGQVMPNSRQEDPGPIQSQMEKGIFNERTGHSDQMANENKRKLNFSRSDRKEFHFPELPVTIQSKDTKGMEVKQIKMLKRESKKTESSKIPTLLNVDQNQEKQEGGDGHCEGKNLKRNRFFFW

panel of 468 kinases [6] = target: T6, panel of 468 kinases (Mycobacterium tuberculosis, UniProt P9WI81); details: read-out: % control
T6 construct: purchased KINOMEscan (ScanMAX) service
T6 sequence (P9WI81 whole entry): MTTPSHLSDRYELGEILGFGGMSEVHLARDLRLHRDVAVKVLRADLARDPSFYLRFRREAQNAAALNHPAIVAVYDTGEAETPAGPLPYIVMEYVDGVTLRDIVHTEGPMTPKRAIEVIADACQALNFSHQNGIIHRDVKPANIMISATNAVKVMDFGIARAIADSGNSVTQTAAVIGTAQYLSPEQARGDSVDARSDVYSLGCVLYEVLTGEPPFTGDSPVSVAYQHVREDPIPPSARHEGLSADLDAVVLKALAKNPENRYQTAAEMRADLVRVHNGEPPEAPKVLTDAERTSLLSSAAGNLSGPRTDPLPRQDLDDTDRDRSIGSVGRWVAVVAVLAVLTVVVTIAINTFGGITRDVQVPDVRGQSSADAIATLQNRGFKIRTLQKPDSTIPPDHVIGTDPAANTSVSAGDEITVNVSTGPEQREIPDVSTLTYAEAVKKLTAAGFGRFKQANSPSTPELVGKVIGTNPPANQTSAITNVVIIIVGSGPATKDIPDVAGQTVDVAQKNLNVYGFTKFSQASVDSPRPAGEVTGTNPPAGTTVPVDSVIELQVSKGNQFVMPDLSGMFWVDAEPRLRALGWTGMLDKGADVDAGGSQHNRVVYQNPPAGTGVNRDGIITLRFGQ

panel of 468 kinases [7] = target: T7, panel of 468 kinases (Homo sapiens, UniProt P33981); details: TTK; 1 μM; read-out: % control
T7 construct: purchased KINOMEscan (ScanMAX) service
T7 sequence (P33981 1-857): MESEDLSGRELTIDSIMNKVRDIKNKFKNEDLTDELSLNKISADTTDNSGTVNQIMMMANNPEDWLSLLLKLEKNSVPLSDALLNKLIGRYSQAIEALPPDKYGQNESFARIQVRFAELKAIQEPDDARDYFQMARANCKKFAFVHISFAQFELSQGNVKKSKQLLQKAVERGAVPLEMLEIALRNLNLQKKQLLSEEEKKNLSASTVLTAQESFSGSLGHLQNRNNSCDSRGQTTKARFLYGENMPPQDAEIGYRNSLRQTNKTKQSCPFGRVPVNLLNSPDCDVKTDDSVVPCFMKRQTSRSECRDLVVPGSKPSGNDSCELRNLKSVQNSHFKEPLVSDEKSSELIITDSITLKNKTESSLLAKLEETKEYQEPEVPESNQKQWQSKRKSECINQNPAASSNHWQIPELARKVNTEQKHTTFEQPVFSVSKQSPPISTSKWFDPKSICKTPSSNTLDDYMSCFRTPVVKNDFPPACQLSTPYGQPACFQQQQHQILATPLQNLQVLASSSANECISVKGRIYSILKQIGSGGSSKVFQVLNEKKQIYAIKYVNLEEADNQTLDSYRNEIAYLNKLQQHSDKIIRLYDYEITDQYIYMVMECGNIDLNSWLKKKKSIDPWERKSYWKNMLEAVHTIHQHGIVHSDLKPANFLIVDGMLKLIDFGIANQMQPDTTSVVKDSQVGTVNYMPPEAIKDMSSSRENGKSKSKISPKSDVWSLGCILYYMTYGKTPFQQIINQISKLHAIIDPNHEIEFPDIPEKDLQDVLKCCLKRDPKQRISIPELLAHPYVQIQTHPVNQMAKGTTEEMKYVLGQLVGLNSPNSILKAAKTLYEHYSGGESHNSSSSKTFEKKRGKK

| SMILES | remaining binding at 1 µM (panel of 468 kinases [1]) | remaining binding at 1 µM (panel of 468 kinases [2]; RPS6KA5(Kin.Dom.1-N-terminal)) | remaining binding at 1 µM (panel of 468 kinases [2]; RPS6KA5(Kin.Dom.2-C-terminal)) | remaining binding at 1 µM (panel of 468 kinases [3]) | remaining binding at 1 µM (panel of 468 kinases [4]) | remaining binding at 1 µM (panel of 468 kinases [5]) | remaining binding at 1 µM (panel of 468 kinases [6]) | remaining binding at 1 µM (panel of 468 kinases [7]) |
| --- | --- | --- | --- | --- | --- | --- | --- | --- |
| CNc1nc(Nc2ccc(S(=O)(=O)N3CCC(N4CCOCC4)CC3)cc2OC)nc2[nH]cc(Cl)c12 [Compound 12, 5-chloro-N2-(2-methoxy-4-((4-morpholinopiperidin-1-yl)sulfonyl)phenyl)-N4-methyl-7H-pyrrolo[2,3-d]pyrimidine-2,4-diamine] | 92% | 100% | 69% | 64% | 75% | 100% | 93% | 1% |
| CNc1nc(Nc2ccc(P3(=O)CCN(C4CCOCC4)CC3)cc2OC)nc2[nH]cc(Cl)c12 [Compound 77, 4-(4-((5-chloro-4-(methylamino)-7H-pyrrolo[2,3-d]pyrimidin-2-yl)amino)-3-methoxyphenyl)-1-(tetrahydro-2H-pyran-4-yl)-1,4-azaphosphinane 4-oxide] | 97% | 94% | 20% | 70% | 70% | 100% | 100% | 0.5% |
| CNc1nc(Nc2ccc(C(=O)N3CCC(N4CCOCC4)CC3)c3c2OCO3)nc2[nH]cc(Cl)c12 [Compound 75, (7-((5-chloro-4-(methylamino)-7H-pyrrolo[2,3-d]pyrimidin-2-yl)amino)benzo[d][1,3]dioxol-4-yl)(4-morpholinopiperidin-1-yl)methanone] | 100% | 100% | 21% | 59% | 19% | 100% | 68% | 0.6% |
